Data: patent publication US11667667B2, “Steroid derivative FXR agonist” (Chia Tai Tianqing Pharmaceutical Group Co., Ltd., priority 2016, dated 2023)

Legend:
[1] = target: T1, Glutathione-S-transferase-labeled FXR human protein (Homo sapiens, UniProt Q96RI1); test: FXR biochemical experiment (AlphaScreen, coactivator recruitment); conditions: for EC50: AlphaScreen, GST-FXR human protein + biotin-labeled steroid receptor coactivator, read-out: FXR enzyme activity EC50; for Emax: ratio of highest signal of the compound to that of the reference compound, read-out: FXR enzyme activity Efficacy
T1 construct: purchased Invitrogen
T1 sequence (Q96RI1 1-486): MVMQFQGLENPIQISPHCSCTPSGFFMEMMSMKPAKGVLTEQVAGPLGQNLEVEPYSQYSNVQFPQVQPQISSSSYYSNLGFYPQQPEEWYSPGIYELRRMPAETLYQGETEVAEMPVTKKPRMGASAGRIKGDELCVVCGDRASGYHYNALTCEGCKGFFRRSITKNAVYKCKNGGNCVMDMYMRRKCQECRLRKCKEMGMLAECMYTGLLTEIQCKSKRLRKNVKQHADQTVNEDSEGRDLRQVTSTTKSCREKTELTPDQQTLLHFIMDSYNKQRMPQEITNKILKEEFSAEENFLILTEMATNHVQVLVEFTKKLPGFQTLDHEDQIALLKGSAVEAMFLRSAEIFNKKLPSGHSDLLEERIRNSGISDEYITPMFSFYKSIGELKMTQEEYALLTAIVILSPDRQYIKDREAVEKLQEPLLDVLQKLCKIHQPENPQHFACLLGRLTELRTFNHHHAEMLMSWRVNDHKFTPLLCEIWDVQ
Protocol: FXR Biochemical Experiment Experimental Purpose: The activation effect of the compound on FXR binding reaction was detected by AlphaScreen. […] Protein: Glutathione-S-transferase-labeled FXR human protein (Invitrogen) 2. Co-activator: Biotin-labeled steroid receptor coactivator (Anaspec) 3. […] Compound Dilution: The compound to be tested was prepared as a 40 μM DMSO solution, and then diluted 3-fold to 10 concentration points. The reference compound was prepared as a 400 μM DMSO solution, and then diluted 1.5-fold to 10 concentration points. The diluted DMSO solution was added to the wells of a 384-well plate in a volume of 150 nL per well. 2. […] 4. […] The operation during the experimental process was protected from light. The incubation was performed for 1 hour at room temperature. 5. […] The operation during the experimental process was protected from light. The incubation was performed for 1 hour at room temperature. 6. EC50 test: Envision was used with excitation at 680 nm to read the […] signals at 520-620 nm. 7. Analytical data: The data were analyzed via using Prism 5.0, and the EC50 values of the activation effects of the compounds were calculated.

[2] = Liver-blood ratio experiment of mice via cassette dosing; format: in vivo, mice (C57BL/6J); conditions: oral cassette 2 mg/kg
Protocol: Liver-Blood Ratio Experiment of Mice Via Cassette Dosing
6 male mice (C57BL/6J) were grouped as an oral administration group. 5 kinds of the developed drugs were contained in the formulation, and intragastrical administration was performed at a dose of 2 mg/kg/compound (the vehicle was 0.5% HPMC aqueous solution). The five compounds were firstly and respectively dissolved in the vehicle, and sonicated or whirled to form a 1 mg/mL solution (clear solution or suspension), respectively; and then the solutions of the five compound were mixed in equal volumes (1:1:1:1:1, v:v:v:v:v) into a glass bottle. After intragastrical oral administration, plasma and liver tissue samples were collected from 3 animals at 0.5 h after administration; corresponding samples were collected from the other 3 animals at 3 h after administration. After collection, the liver tissue was homogenized by using ice-cold homogenization buffer (methanol:15 mM PBS buffer (pH 7.4)=1:2, v:v) based on the ratio of liver weight:homogenization buffer volume=1:3. Plasma and liver tissue samples were analyzed by using a five-in-one LC-MS/MS analysis method developed in advance. The concentrations of plasma and liver tissue homogenate were obtained, and the concentration ratios of liver tissue to plasma were calculated by using Excel.

Structure (SMILES) | EC50 [1] [µM] | Emax [1] [%] | also measured
CC[C@H]1[C@@H](O)[C@@H]2[C@H](CC[C@]3(C)[C@@H]([C@H](C)CCN4CCC[C@@H]4C(=O)O)CC[C@@H]23)[C@@]2(C)CC[C@@H](O)C[C@@H]12 [Example 2] | 1.46 | 114 | –
CC[C@H]1[C@@H](O)[C@@H]2[C@H](CC[C@]3(C)[C@@H]([C@H](C)CCN4CCC[C@H]4C(=O)O)CC[C@@H]23)[C@@]2(C)CC[C@@H](O)C[C@@H]12 [Example 3] | 2.62 | 106 | –
CC[C@H]1[C@@H](O)[C@@H]2[C@H](CC[C@]3(C)[C@@H]([C@H](C)CCOc4ccccc4C(=O)O)CC[C@@H]23)[C@@]2(C)CC[C@@H](O)C[C@@H]12 [Example 8] | – | 264 | –
CC[C@H]1[C@@H](O)[C@@H]2[C@H](CC[C@]3(C)[C@@H]([C@H](C)CCOc4cnc(C(=O)O)nc4)CC[C@@H]23)[C@@]2(C)CC[C@@H](O)C[C@@H]12 [Example 12] | 0.07 | 240 | –
CC[C@H]1[C@@H](O)[C@@H]2[C@H](CC[C@]3(C)[C@@H]([C@H](C)CCOc4cnccc4C(=O)O)CC[C@@H]23)[C@@]2(C)CC[C@@H](O)C[C@@H]12 [Example 13] | 0.39 | 270 | –
CC[C@H]1[C@@H](OC)[C@@H]2[C@H](CC[C@]3(C)[C@@H]([C@H](C)CCOCC45CC(C(=O)O)(C4)C5)CC[C@@H]23)[C@@]2(C)CC[C@@H](O)C[C@@H]12 [Example 14] | 0.73 | 195 | –
CC[C@H]1[C@@H](O)[C@@H]2[C@H](CC[C@]3(C)[C@@H]([C@H](C)CCOc4cccnc4C(=O)O)CC[C@@H]23)[C@@]2(C)CC[C@@H](O)C[C@@H]12 [Example 16] | 0.31 | 247 | –
CC[C@H]1[C@@H](O)[C@@H]2[C@H](CC[C@]3(C)[C@@H]([C@H](C)CCCOc4ccc(C(=O)O)cn4)CC[C@@H]23)[C@@]2(C)CC[C@@H](O)C[C@@H]12 [Example 18] | 0.07 | 187 | –
CC[C@H]1[C@@H](O)[C@@H]2[C@H](CC[C@]3(C)[C@@H]([C@H](C)/C=C/c4cccc(C(=O)O)c4)CC[C@@H]23)[C@@]2(C)CC[C@@H](O)C[C@@H]12 [Example 20] | 0.06 | 287 | –
CC[C@H]1[C@@H](O)[C@@H]2[C@H](CC[C@]3(C)[C@@H]([C@H](C)CCOc4ncc(C(=O)O)cc4F)CC[C@@H]23)[C@@]2(C)CC[C@@H](O)C[C@@H]12 [Example 24] | – | 138 | –
CC[C@H]1[C@@H](O)[C@@H]2[C@H](CC[C@]3(C)[C@@H]([C@H](C)CCOc4cccc(C(=O)O)n4)CC[C@@H]23)[C@@]2(C)CC[C@@H](O)C[C@@H]12 [Example 25] | 0.011 | 233 | –
CC[C@H]1[C@@H](O)[C@@H]2[C@H](CC[C@]3(C)[C@@H]([C@H](C)CCOc4ccc(C(=O)NS(C)(=O)=O)cn4)CC[C@@H]23)[C@@]2(C)CC[C@@H](O)C[C@@H]12 [Example 27] | 0.006 | 212 | –
CC[C@H]1[C@@H](O)[C@@H]2[C@H](CC[C@]3(C)[C@@H]([C@H](C)CCOc4ccc(C(=O)NS(=O)(=O)C5CC5)cn4)CC[C@@H]23)[C@@]2(C)CC[C@@H](O)C[C@@H]12 [Example 28] | 0.007 | 219 | –
CC[C@H]1[C@@H](O)[C@@H]2[C@H](CC[C@]3(C)[C@@H]([C@H](C)CCOc4ccc(C(=O)NS(=O)(=O)C(C)(C)C)cn4)CC[C@@H]23)[C@@]2(C)CC[C@@H](O)C[C@@H]12 [Example 29] | 0.012 | 190 | –
CC[C@H]1[C@@H](O)[C@@H]2[C@H](CC[C@]3(C)[C@@H]([C@H](C)CCOc4ccc(C(=O)NS(=O)(=O)C(C)C)cn4)CC[C@@H]23)[C@@]2(C)CC[C@@H](O)C[C@@H]12 [Example 30] | 0.056 | 150 | –
CC[C@H]1[C@@H](O)[C@@H]2[C@H](CC[C@]3(C)[C@@H]([C@H](C)CCOc4ccc(C(=O)NS(=O)(=O)c5ccccc5)cn4)CC[C@@H]23)[C@@]2(C)CC[C@@H](O)C[C@@H]12 [Example 31] | 0.027 | 204 | –
CC[C@H]1[C@@H](O)[C@@H]2[C@H](CC[C@]3(C)[C@@H]([C@H](C)CCOc4ccc(C(=O)Nc5ccccc5)cn4)CC[C@@H]23)[C@@]2(C)CC[C@@H](O)C[C@@H]12 [Example 32] | 0.65 | 140 | –
CC[C@H]1[C@@H](O)[C@@H]2[C@H](CC[C@]3(C)[C@@H]([C@H](C)CCOc4ccc(C(=O)NC)cn4)CC[C@@H]23)[C@@]2(C)CC[C@@H](O)C[C@@H]12 [Example 33] | 0.141 | 194 | –
CC[C@H]1[C@@H](O)[C@@H]2[C@H](CC[C@]3(C)[C@@H]([C@H](C)CCOc4ccc(C(=O)NC5CC5)cn4)CC[C@@H]23)[C@@]2(C)CC[C@@H](O)C[C@@H]12 [Example 34] | 0.093 | 191 | –
CC[C@H]1[C@@H](O)[C@@H]2[C@H](CC[C@]3(C)[C@@H]([C@H](C)CCOc4ccc(C(=O)NCCS(=O)(=O)O)cn4)CC[C@@H]23)[C@@]2(C)CC[C@@H](O)C[C@@H]12 [Example 38] | 0.02 | 210 | –
CC[C@H]1[C@@H](O)[C@@H]2[C@H](CC[C@]3(C)[C@@H]([C@H](C)CCOc4ccc(C(=O)NCC(=O)O)cn4)CC[C@@H]23)[C@@]2(C)CC[C@@H](O)C[C@@H]12 [Example 39] | 0.02 | 205 | –
CC[C@H]1[C@@H](O)[C@@H]2[C@H](CC[C@]3(C)[C@@H]([C@H](C)CCCOc4ncc(C(=O)O)cc4Cl)CC[C@@H]23)[C@@]2(C)CC[C@@H](O)C[C@@H]12 [Example 40] | 0.045 | 197 | –
CC[C@H]1[C@@H](O)[C@@H]2[C@H](CC[C@]3(C)[C@@H]([C@H](C)CCOc4ccnc(C(=O)O)c4)CC[C@@H]23)[C@@]2(C)CC[C@@H](O)C[C@@H]12 [Example 41] | 0.08 | 127 | –
CC[C@H]1[C@@H](O)[C@@H]2[C@H](CC[C@]3(C)[C@@H]([C@H](C)CC(=O)Nc4cncc(C(=O)O)c4)CC[C@@H]23)[C@@]2(C)CC[C@@H](O)C[C@@H]12 [Example 42] | 1.43 | 121 | –
CC[C@H]1[C@@H](O)[C@@H]2[C@H](CC[C@]3(C)[C@@H]([C@H](C)CCNc4cncc(C(=O)O)c4)CC[C@@H]23)[C@@]2(C)CC[C@@H](O)C[C@@H]12 [Example 43] | 0.37 | 193 | –
CC[C@H]1[C@@H](O)[C@@H]2[C@H](CC[C@]3(C)[C@@H]([C@H](C)CCOc4ccc(C(=O)OC)cn4)CC[C@@H]23)[C@@]2(C)CC[C@@H](O)C[C@@H]12 [Example 44] | 0.33 | 140 | –
CC[C@H]1[C@@H](O)[C@@H]2[C@H](CC[C@]3(C)[C@@H]([C@H](C)CCC(=O)O)CC[C@@H]23)[C@@]2(C)CC[C@@H](O)C[C@@H]12 [INT-747, reference compound] | – | – | Concentration in liver ([2]; 0.5 h): 711 nM; Concentration in plasma ([2]; 0.5 h): 151 nM; Concentration ratio of liver to plasma ([2]; 0.5 h): 5; Concentration in liver ([2]; 3 h): 625 nM; Concentration in plasma ([2]; 3 h): 63 nM; Concentration ratio of liver to plasma ([2]; 3 h): 10
